Several values for one entry are separate records, joined by “and”; a condition that tells them apart may be missing. Equal values may be shown once.
How the values were obtained:
[1] = Photostability in macrogol formulations on PMMA plates (solar light simulator); format: physicochemical; details: for % of Initial AUC / % of Initial SPFin vitro / % of Initial UVA PF: after 1 h irradiation at 500 W/m^2, formulation F1
How it was run: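 Macrogol formulations (2% w/w) applied at 1.3 mg/cm² on PMMA plates were irradiated 1 h at 500 W/m² (218 kJ/m² UV) in a solar simulator with <290 nm cut-off and IR block. SPFin vitro, UVA PF and AUC were compared before and after exposure, with methanol washes analysed by UPLC-MS/MS, in duplicate.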

[2] = Ames MPF Penta 2 mutagenicity assay, overall verdict over all strains; format: cell-based, Salmonella typhimurium, Escherichia coli; details: Salmonella typhimurium, Escherichia coli; 0.1, 0.2 and 0.5 mM, absence and presence of metabolic activation; read-out: fold induction over the baseline, any dose and strain
Source text: (§1) Growth, exposure and indicator media, liver S9 fraction, S9-NADP, S9-G-6-P, positive control chemicals as well as Salmonella typhimurium and Escherichia coli strains were included in the kit from Xenometrix. According to the obtained results, there were no doses of test compounds 3b and 4g with more than a 2-fold induction over the baseline, and a dose dependent response was not observed both in the absence and presence of metabolic activation (Table S3). Therefore, compounds 3b and 4g were clearly non-mutagenic in the absence and presence of metabolic activation.

[3] = tested on: Salmonella typhimurium and Escherichia coli strains; test: as above; format: cell-based; details: in the absence and presence of metabolic activation
Source text: as §1

[4] = Solubility in cosmetic solvents / macrogol formulations; format: physicochemical; details: typical cosmetic solvents / formulations used
Source text: The composition of formulations and concentration of tested compounds were based on their limited solubility. N-monosubstituted compounds 2a–2e were insoluble at desirable concentrations in the typical solvents used in cosmetic formulations such as alcohols, triacetin, surfactants, and co-surfactants. To dissolve compounds 2a and 2b before incorporation to the formulation DMSO: Tween 20 (1:9 w/w) was used, for less soluble 2c–2e it was necessary to use DMSO alone as solvent. […] Thus the detailed composition of the formulations is as follows: F1–Tween 20 43.2%, PEG-400 25%, PEG-1500 25%, Triacetin 4.8%, tested compound 2%; F2–Tween 20 43.2%, PEG-400 25%, PEG-1500 25%, DMSO 4.8%, tested compound 2%; F3–PEG-400 25%, PEG-1500 25%, DMSO 48%, tested compound 2%. Considering the disadvantages of currently reported macrogol formulations and the low concentration achieved for the tested compounds (2%), we plan to work on cosmetic emulsions containing the most promising derivatives at higher concentrations as well as required excipients including preservatives, antioxidants, etc. This research will be carried out in the near future.

Structure (SMILES) | % of Initial AUC [1] | % of Initial SPFin vitro [1] | % of Initial UVA PF [1] | photostability (in words) ([1]; macrogol formulation) | fold induction at 90 min [2] | mutagenicity (verdict in words) [3] | photoisomer in post-irradiation chromatogram ([1]; macrogol formulation, UPLC-MS/MS) [%] | new photoproduct (besides photoisomer), relative peak area ([1]; macrogol formulation, post-irradiation chromatogram) [%] | solubility (in words) [4]
CCOC(=O)CN1C(=O)/C(=C/C=C/c2ccc(OC)cc2)N(CC(=O)OCC)C1=O [Compound 4g, Diethyl 2,2′-((Z)-4-((E)-3-(4-methoxyphenyl)allylidene)-2,5-dioxoimidazolidine-1,3-diyl)diacetate] | 51.98% | 86.29% | 34.39% | favorable photostability | ≤ 2 | non-mutagenic | – | – | –
CCOC(=O)CN1C(=O)/C(=C/c2ccc(OC)cc2)N(CC(=O)OCC)C1=O [Compound 3b, Diethyl 2,2′-((Z)-4-(4-methoxybenzylidene)-2,5-dioxoimidazolidine-1,3-diyl)diacetate] | 84.67% and 76.50% | 80.46% and 72.69% | 87.04% and 84.08% | very good | ≤ 2 | non-mutagenic | 32.1 | 2.4 | very good solubility
